Results reported in ChEMBL document CHEMBL1909046, “DrugMatrix in vitro pharmacology data”.

What was measured:
[1] = DRUGMATRIX: Serotonin (5-Hydroxytryptamine) 5-HT3 radioligand binding (ligand: [3H] GR-65630); assay type: cell membranes, Membrane; details: hek293; Not Active = under 50% inhibition at 10 µM
[2] = biological target: 5-hydroxytryptamine receptor 4 (Cavia porcellus, UniProt O70528); assay type: cell membranes, Dunkin-Hartley, Striatum, Membrane; further: in other assays of this panel Not Active means under 50% inhibition at 10 µM
Substance-P receptor = Substance-P receptor (Homo sapiens, UniProt P25103); assay type: cell membranes, Membrane; details: cho; further: in other assays of this panel Not Active means under 50% inhibition at 10 µM
Cannabinoid receptor 1 = Cannabinoid receptor 1 (Homo sapiens, UniProt P21554); assay type: cell membranes, Chem-1, Membrane; details: chem-1; further: in other assays of this panel Not Active means under 50% inhibition at 10 µM
[3] = biological target: Mitogen-activated protein kinase 14 (Homo sapiens, UniProt Q16539); set-up: species or system Escherichia coli;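 further: inhibition of p38alpha enzyme activity in a biochemical kinase assay, with myelin basic protein serving as substrate; in other assays of this panel Not Active means under 50% inhibition at 10 µM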
Estrogen receptor = biological target: T1, Estrogen receptor (Homo sapiens, UniProt P03372); details: sf9; further: in other assays of this panel Not Active means under 50% inhibition at 10 µM
T1 sequence (P03372 whole entry): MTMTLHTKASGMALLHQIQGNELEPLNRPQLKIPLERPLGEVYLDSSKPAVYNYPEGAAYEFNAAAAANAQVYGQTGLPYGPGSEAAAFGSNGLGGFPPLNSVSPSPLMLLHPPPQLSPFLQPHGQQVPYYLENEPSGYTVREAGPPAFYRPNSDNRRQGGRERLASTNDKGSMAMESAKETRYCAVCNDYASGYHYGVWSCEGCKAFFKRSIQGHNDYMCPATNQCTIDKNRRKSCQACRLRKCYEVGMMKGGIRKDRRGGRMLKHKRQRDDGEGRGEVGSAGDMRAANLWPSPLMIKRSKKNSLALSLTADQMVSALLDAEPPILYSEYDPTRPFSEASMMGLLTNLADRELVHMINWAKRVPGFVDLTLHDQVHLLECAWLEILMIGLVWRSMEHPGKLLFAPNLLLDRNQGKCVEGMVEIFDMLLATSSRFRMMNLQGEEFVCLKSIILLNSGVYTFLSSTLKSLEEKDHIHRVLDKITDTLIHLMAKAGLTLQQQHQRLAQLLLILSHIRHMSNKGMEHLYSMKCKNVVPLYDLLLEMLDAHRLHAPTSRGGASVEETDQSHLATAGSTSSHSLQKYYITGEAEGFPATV

Chain of Cannabinoid receptor 1 (P21554 whole entry): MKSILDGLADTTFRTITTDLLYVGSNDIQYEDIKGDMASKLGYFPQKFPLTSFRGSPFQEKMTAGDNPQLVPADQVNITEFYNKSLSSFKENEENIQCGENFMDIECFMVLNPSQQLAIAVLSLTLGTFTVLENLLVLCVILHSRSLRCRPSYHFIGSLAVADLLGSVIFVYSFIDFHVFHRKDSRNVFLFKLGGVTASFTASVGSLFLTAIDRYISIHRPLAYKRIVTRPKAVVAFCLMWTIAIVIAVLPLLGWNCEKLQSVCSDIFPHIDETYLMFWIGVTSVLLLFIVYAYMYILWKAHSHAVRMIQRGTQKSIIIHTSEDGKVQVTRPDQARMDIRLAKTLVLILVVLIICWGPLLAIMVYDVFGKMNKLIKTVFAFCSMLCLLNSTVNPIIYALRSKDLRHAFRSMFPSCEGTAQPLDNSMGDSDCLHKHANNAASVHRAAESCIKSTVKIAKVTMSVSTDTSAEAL
Chain of Mitogen-activated protein kinase 14 (Q16539 whole entry): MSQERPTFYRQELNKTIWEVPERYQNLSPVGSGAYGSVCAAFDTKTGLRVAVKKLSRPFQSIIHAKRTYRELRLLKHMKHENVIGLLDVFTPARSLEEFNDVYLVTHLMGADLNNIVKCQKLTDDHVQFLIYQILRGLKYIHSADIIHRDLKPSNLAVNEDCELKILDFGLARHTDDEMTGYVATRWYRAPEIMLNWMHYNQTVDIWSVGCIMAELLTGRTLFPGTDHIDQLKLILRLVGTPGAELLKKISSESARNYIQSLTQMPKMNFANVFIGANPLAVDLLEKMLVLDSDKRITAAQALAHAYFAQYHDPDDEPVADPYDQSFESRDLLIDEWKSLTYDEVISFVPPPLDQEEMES
Chain of 5-hydroxytryptamine receptor 4 (O70528 whole entry): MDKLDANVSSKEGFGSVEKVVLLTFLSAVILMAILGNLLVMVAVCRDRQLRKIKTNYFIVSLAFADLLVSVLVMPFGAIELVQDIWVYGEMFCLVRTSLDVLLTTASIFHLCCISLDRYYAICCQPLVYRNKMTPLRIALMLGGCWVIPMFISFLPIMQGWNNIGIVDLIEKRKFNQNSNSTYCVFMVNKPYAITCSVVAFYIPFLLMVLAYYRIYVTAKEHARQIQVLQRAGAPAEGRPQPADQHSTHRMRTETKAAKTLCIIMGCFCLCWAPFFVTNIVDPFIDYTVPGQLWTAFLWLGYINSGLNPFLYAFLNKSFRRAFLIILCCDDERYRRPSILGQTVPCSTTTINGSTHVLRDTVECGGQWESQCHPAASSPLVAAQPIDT
Chain of Substance-P receptor (P25103 whole entry): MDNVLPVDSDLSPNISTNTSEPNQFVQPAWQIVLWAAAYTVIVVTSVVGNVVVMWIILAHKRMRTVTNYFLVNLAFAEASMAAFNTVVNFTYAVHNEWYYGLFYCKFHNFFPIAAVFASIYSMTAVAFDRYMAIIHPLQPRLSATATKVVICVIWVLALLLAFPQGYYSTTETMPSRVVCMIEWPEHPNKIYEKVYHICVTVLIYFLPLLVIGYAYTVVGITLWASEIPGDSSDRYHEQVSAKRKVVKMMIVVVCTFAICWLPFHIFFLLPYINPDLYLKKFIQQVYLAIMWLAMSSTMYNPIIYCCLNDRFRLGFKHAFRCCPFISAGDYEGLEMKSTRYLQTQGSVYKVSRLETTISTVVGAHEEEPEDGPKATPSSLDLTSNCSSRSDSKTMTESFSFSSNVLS

O=C(O)CNCP(=O)(O)O [GLYPHOSATE]
Not Active: IC50 [1] | Ki [1] | IC50 [2] | IC50 (Substance-P receptor) | IC50 (Cannabinoid receptor 1) | IC50 [3] | IC50 (Estrogen receptor)

CO[C@H]1O[C@@H]2O[C@@]3(C)CC[C@H]4[C@H](C)CC[C@@H]([C@H]1C)[C@@]24OO3
Not Active: IC50 [1] | Ki [1] | IC50 [2] | IC50 (Substance-P receptor) | IC50 (Cannabinoid receptor 1) | IC50 [3] | IC50 (Estrogen receptor)

Nc1nc(F)nc2c1ncn2[C@@H]1O[C@H](CO)[C@@H](O)[C@@H]1O [FLUDARABINE]
Not Active: IC50 [1] | Ki [1] | IC50 [2] | IC50 (Substance-P receptor) | IC50 (Cannabinoid receptor 1) | IC50 [3] | IC50 (Estrogen receptor)

CHROMIC CHLORIDE
Not Active: IC50 [1] | Ki [1] | IC50 [2] | Ki [2] | IC50 (Substance-P receptor) | Ki (Substance-P receptor) | IC50 (Cannabinoid receptor 1) | Ki (Cannabinoid receptor 1) | IC50 [3] | Ki [3] | IC50 (Estrogen receptor) | Ki (Estrogen receptor)

O=C(O)CO [GLYCOLIC ACID]
Not Active: IC50 [1] | Ki [1] | IC50 [2] | IC50 (Substance-P receptor) | IC50 (Cannabinoid receptor 1) | IC50 [3] | IC50 (Estrogen receptor)

COC(=O)C[C@](O)(CCC(C)(C)O)C(=O)O[C@@H]1C(OC)=C[C@]23CCCN2CCc2cc4c(cc2[C@H]13)OCO4 [HARRINGTONINE]
Not Active: IC50 [1] | Ki [1] | IC50 [2] | IC50 (Substance-P receptor) | IC50 (Cannabinoid receptor 1) | IC50 [3] | IC50 (Estrogen receptor)

CC12CCC(CC1=O)C2(C)C (centres undefined) [CAMPHOR]
Not Active: IC50 [1] | Ki [1] | IC50 [2] | IC50 (Substance-P receptor) | IC50 (Cannabinoid receptor 1) | IC50 [3] | IC50 (Estrogen receptor)

CCN1CCN(C(=O)N[C@@H](C(=O)N[C@@H]2C(=O)N3[C@@H]2SC(C)(C)[C@@H]3C(=O)O)c2ccccc2)C(=O)C1=O [PIPERACILLIN]
Not Active: IC50 [1] | Ki [1] | IC50 [2] | IC50 (Substance-P receptor) | IC50 (Cannabinoid receptor 1) | IC50 [3] | IC50 (Estrogen receptor)

O=C(O)CCc1nc(-c2ccccc2)c(-c2ccccc2)o1 [OXAPROZIN]
Not Active: IC50 [1] | Ki [1] | IC50 [2] | IC50 (Substance-P receptor) | IC50 (Cannabinoid receptor 1) | IC50 [3] | IC50 (Estrogen receptor)

c1ccc2sc(SSc3nc4ccccc4s3)nc2c1 [BENZOTHIAZYL DISULFIDE]
Not Active: IC50 [1] | Ki [1] | IC50 [2] | IC50 (Substance-P receptor) | IC50 (Cannabinoid receptor 1) | IC50 [3] | IC50 (Estrogen receptor)

O=C1CN(/N=C/c2ccc([N+](=O)[O-])o2)C(=O)N1 [NITROFURANTOIN]
Not Active: IC50 [1] | Ki [1] | IC50 [2] | IC50 (Substance-P receptor) | IC50 (Cannabinoid receptor 1) | IC50 [3] | IC50 (Estrogen receptor)

CC(C)NCC(O)COc1ccc(CC(N)=O)cc1 (centres undefined) [ATENOLOL]
Not Active: IC50 [1] | Ki [1] | IC50 [2] | IC50 (Substance-P receptor) | IC50 (Cannabinoid receptor 1) | IC50 [3] | IC50 (Estrogen receptor)

Cl.NC[C@H]1CC[C@H](C(=O)Oc2ccc(CCC(=O)O)cc2)CC1 [CETRAXATE HYDROCHLORIDE]
Not Active: IC50 [1] | Ki [1] | IC50 [2] | IC50 (Substance-P receptor) | IC50 (Cannabinoid receptor 1) | IC50 [3] | IC50 (Estrogen receptor)

CARBOXYMETHYLCELLULOSE
Not Active: IC50 [1] | Ki [1] | IC50 [2] | Ki [2] | IC50 (Substance-P receptor) | Ki (Substance-P receptor) | IC50 (Cannabinoid receptor 1) | Ki (Cannabinoid receptor 1) | IC50 [3] | Ki [3] | IC50 (Estrogen receptor) | Ki (Estrogen receptor)

C[C@@H]1[C@H](O)[C@@H](C)/C=C/C=C/C=C/C=C/C=C/C=C/C=C/[C@H](O[C@@H]2O[C@H](C)[C@@H](O)[C@H](N)[C@@H]2O)C[C@@H]2O[C@](O)(C[C@@H](O)C[C@@H](O)[C@H](O)CC[C@@H](O)C[C@@H](O)CC(=O)O[C@H]1C)C[C@H](O)[C@H]2C(=O)O [AMPHOTERICIN B]
Not Active: IC50 [1] | Ki [1] | IC50 [2] | IC50 (Substance-P receptor) | IC50 (Cannabinoid receptor 1) | IC50 [3] | IC50 (Estrogen receptor)

CCC1(c2ccccc2)C(=O)NC(=O)NC1=O [PHENOBARBITAL]
Not Active: IC50 [1] | Ki [1] | IC50 [2] | IC50 (Substance-P receptor) | IC50 (Cannabinoid receptor 1) | IC50 [3] | IC50 (Estrogen receptor)

C=CCN1CC[C@]23c4c5ccc(O)c4O[C@H]2/C(=N/N=C2\CC[C@@]4(O)[C@H]6Cc7ccc(O)c8c7[C@@]4(CCN6CC=C)[C@H]2O8)CC[C@@]3(O)[C@H]1C5 [NALOXONAZINE]
Not Active: IC50 [1] | Ki [1] | IC50 [2] | IC50 (Substance-P receptor) | IC50 (Cannabinoid receptor 1) | IC50 [3] | IC50 (Estrogen receptor)
